How the values were obtained:
Assay type in all cases: in vivo
Setaria faberi (SETFA) [1] = assay: Pre-Emergence Test (herbicidal, glasshouse pots); details: evaluated after 13 days, five-point scale
[2] = tested on: Ipomoea hederacea (IPOHE); assay: Pre-Emergence Test (herbicidal, glasshouse pots); details: evaluated after 13 days, five-point scale
[3] = tested on: Echinochloa crus-galli (ECHCG); assay: Pre-Emergence Test (herbicidal, glasshouse pots); details: evaluated after 13 days, five-point scale
[4] = tested on: Amaranthus retoflexus (AMARE); assay: Pre-Emergence Test (herbicidal, glasshouse pots); details: evaluated after 13 days, five-point scale
Zea mays (ZEAMX) [5] = assay: Pre-Emergence Test (herbicidal, glasshouse pots); details: evaluated after 13 days, five-point scale
[6] = tested on: Amaranthus palmeri (AMAPA); assay: Pre-Emergence Test (herbicidal, glasshouse pots); details: evaluated after 13 days, five-point scale
[7] = tested on: Amaranthus palmeri (AMAPA); assay: Post-Emergence Test (herbicidal, glasshouse pots); details: evaluated after 13 days
Outline: (§1)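 Damage after 13 days is given as a five-point score, where 5 means 81-100% and 1 means 0-20% injury. Seed-sown pots were treated by spray with the technical ingredient in aqueous acetone (50:50) with 0.5% Tween 20, dose expressed in g/ha.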

[8] = tested on: Amaranthus retoflexus (AMARE); assay: Post-Emergence Test (herbicidal, glasshouse pots); details: evaluated after 13 days
Outline: as §1

[9] = tested on: Echinochloa crus-galli (ECHCG); assay: Post-Emergence Test (herbicidal, glasshouse pots); details: evaluated after 13 days
Outline: as §1

[10] = tested on: Ipomoea hederacea (IPOHE); assay: Post-Emergence Test (herbicidal, glasshouse pots); details: evaluated after 13 days
Outline: as §1

Setaria faberi (SETFA) [11] = assay: Post-Emergence Test (herbicidal, glasshouse pots); details: evaluated after 13 days
Outline: as §1

Zea mays (ZEAMX) [12] = assay: Post-Emergence Test (herbicidal, glasshouse pots); details: evaluated after 13 days
Outline: as §1

## CCn1c(Oc2cc(F)ccc2Cl)cc(=O)c(C(=O)O)c1-c1ccc(Cl)c(Cl)c1 [Compound 35, 6-(2-chloro-5-fluoro-phenoxy)-2-(3,4-dichlorophenyl)-1-ethyl-4-oxo-pyridine-3-carboxylic acid]
Setaria faberi (SETFA) [1]; rate 1000 g/ha
  percentage damage caused to the plant, SETFA: 5 (5=81-100%)
[2]; rate 1000 g/ha
  percentage damage caused to the plant, IPHOE: 0
[3]; rate 1000 g/ha
  percentage damage caused to the plant, ECHCG: 5 (5=81-100%)
[4]; rate 1000 g/ha
  percentage damage caused to the plant, AMARE: 1 (1=0-20%)
Zea mays (ZEAMX) [5]; rate 1000 g/ha
  percentage damage caused to the plant, ZEAMX: 1 (1=0-20%)
[6]; rate 1000 g/ha
  percentage damage caused to the plant, AMAPA: 0
[7]; rate 1000 g/ha
  Post-Emergence Test AMAPA percentage damage (five-point scale): 3 (3=41-60%)
[8]; rate 1000 g/ha
  Post-Emergence Test AMARE percentage damage (five-point scale): 3 (3=41-60%)
[9]; rate 1000 g/ha
  Post-Emergence Test ECHCG percentage damage (five-point scale): 4 (4=61-80%)
[10]; rate 1000 g/ha
  Post-Emergence Test IPHOE percentage damage (five-point scale): 2 (2=21-40%)
Setaria faberi (SETFA) [11]; rate 1000 g/ha
  Post-Emergence Test SETFA percentage damage (five-point scale): 4 (4=61-80%)
Zea mays (ZEAMX) [12]; rate 1000 g/ha
  Post-Emergence Test ZEAMX percentage damage (five-point scale): 2 (2=21-40%)

## CCn1c(Oc2ccn(C)n2)cc(=O)c(C(=O)O)c1-c1ccc(Cl)c(Cl)c1 [Compound 37, 2-(3,4-dichlorophenyl)-1-ethyl-6-(1-methylpyrazol-3-yl)oxo-4-oxo-pyridine-3-carboxylic acid]
Setaria faberi (SETFA) [1]; rate 62.5 g/ha
  percentage damage caused to the plant, SETFA: 5 (5=81-100%)
[2]; rate 62.5 g/ha
  percentage damage caused to the plant, IPHOE: 3 (3=41-60%)
[3]; rate 62.5 g/ha
  percentage damage caused to the plant, ECHCG: 4 (4=61-80%)
[4]; rate 62.5 g/ha
  percentage damage caused to the plant, AMARE: 2 (2=21-40%)
Zea mays (ZEAMX) [5]; rate 62.5 g/ha
  percentage damage caused to the plant, ZEAMX: 3 (3=41-60%)
[6]; rate 62.5 g/ha
  percentage damage caused to the plant, AMAPA: 2 (2=21-40%)
[7]; rate 62.5 g/ha
  Post-Emergence Test AMAPA percentage damage (five-point scale): 4 (4=61-80%)
[8]; rate 62.5 g/ha
  Post-Emergence Test AMARE percentage damage (five-point scale): 4 (4=61-80%)
[9]; rate 62.5 g/ha
  Post-Emergence Test ECHCG percentage damage (five-point scale): 4 (4=61-80%)
[10]; rate 62.5 g/ha
  Post-Emergence Test IPHOE percentage damage (five-point scale): 3 (3=41-60%)
Setaria faberi (SETFA) [11]; rate 62.5 g/ha
  Post-Emergence Test SETFA percentage damage (five-point scale): 4 (4=61-80%)
Zea mays (ZEAMX) [12]; rate 62.5 g/ha
  Post-Emergence Test ZEAMX percentage damage (five-point scale): 4 (4=61-80%)

## CCn1c(Oc2cnsn2)cc(=O)c(C(=O)O)c1-c1ccc(Cl)c(Cl)c1 [Compound 43, 2-(3,4-dichlorophenyl)-1-ethyl-4-oxo-6-(1,2,5-thiadiazol-3-yloxy)pyridine-3-carboxylic acid]
Setaria faberi (SETFA) [1]; rate 250 g/ha
  percentage damage caused to the plant, SETFA: 1 (1=0-20%)
[2]; rate 250 g/ha
  percentage damage caused to the plant, IPHOE: 3 (3=41-60%)
[3]; rate 250 g/ha
  percentage damage caused to the plant, ECHCG: 1 (1=0-20%)
[4]; rate 250 g/ha
  percentage damage caused to the plant, AMARE: 1 (1=0-20%)
Zea mays (ZEAMX) [5]; rate 250 g/ha
  percentage damage caused to the plant, ZEAMX: 0
[6]; rate 250 g/ha
  percentage damage caused to the plant, AMAPA: 0
[7]; rate 250 g/ha
  Post-Emergence Test AMAPA percentage damage (five-point scale): 2 (2=21-40%)
[8]; rate 250 g/ha
  Post-Emergence Test AMARE percentage damage (five-point scale): 1 (1=0-20%)
[9]; rate 250 g/ha
  Post-Emergence Test ECHCG percentage damage (five-point scale): 2 (2=21-40%)
[10]; rate 250 g/ha
  Post-Emergence Test IPHOE percentage damage (five-point scale): 4 (4=61-80%)
Setaria faberi (SETFA) [11]; rate 250 g/ha
  Post-Emergence Test SETFA percentage damage (five-point scale): 2 (2=21-40%)
Zea mays (ZEAMX) [12]; rate 250 g/ha
  Post-Emergence Test ZEAMX percentage damage (five-point scale): 0

## CCn1cc(Oc2cc(=O)c(C(=O)O)c(-c3ccc(Cl)c(Cl)c3)n2CC)cn1 [Compound 59, 2-(3,4-dichlorophenyl)-1-ethyl-6-(1-ethylpyrazol-4-yl)oxy-4-oxo-pyridine-3-carboxylic acid]
Setaria faberi (SETFA) [1]; rate 250 g/ha
  percentage damage caused to the plant, SETFA: 5 (5=81-100%)
[2]; rate 250 g/ha
  percentage damage caused to the plant, IPHOE: 4 (4=61-80%)
[3]; rate 250 g/ha
  percentage damage caused to the plant, ECHCG: 4 (4=61-80%)
[4]; rate 250 g/ha
  percentage damage caused to the plant, AMARE: 2 (2=21-40%)
Zea mays (ZEAMX) [5]; rate 250 g/ha
  percentage damage caused to the plant, ZEAMX: 3 (3=41-60%)
[6]; rate 250 g/ha
  percentage damage caused to the plant, AMAPA: 1 (1=0-20%)
[7]; rate 250 g/ha
  Post-Emergence Test AMAPA percentage damage (five-point scale): 3 (3=41-60%)
[8]; rate 250 g/ha
  Post-Emergence Test AMARE percentage damage (five-point scale): 4 (4=61-80%)
[9]; rate 250 g/ha
  Post-Emergence Test ECHCG percentage damage (five-point scale): 3 (3=41-60%)
[10]; rate 250 g/ha
  Post-Emergence Test IPHOE percentage damage (five-point scale): 4 (4=61-80%)
Setaria faberi (SETFA) [11]; rate 250 g/ha
  Post-Emergence Test SETFA percentage damage (five-point scale): 3 (3=41-60%)
Zea mays (ZEAMX) [12]; rate 250 g/ha
  Post-Emergence Test ZEAMX percentage damage (five-point scale): 4 (4=61-80%)

## CCn1c(Oc2cccc(Cl)c2)cc(=O)c(C(=O)O)c1-c1ccc(Cl)c(Cl)c1 [Compound 2, 6-(3-chlorophenoxy)-2-(3,4-dichlorophenyl)-1-ethyl-4-oxo-pyridine-3-carboxylic acid]
Setaria faberi (SETFA) [1]; rate 1000 g/ha
  percentage damage caused to the plant, SETFA: 5 (5=81-100%)
[2]; rate 1000 g/ha
  percentage damage caused to the plant, IPHOE: 4 (4=61-80%)
[3]; rate 1000 g/ha
  percentage damage caused to the plant, ECHCG: 4 (4=61-80%)
[4]; rate 1000 g/ha
  percentage damage caused to the plant, AMARE: 2 (2=21-40%)
Zea mays (ZEAMX) [5]; rate 1000 g/ha
  percentage damage caused to the plant, ZEAMX: 2 (2=21-40%)
[6]; rate 1000 g/ha
  percentage damage caused to the plant, AMAPA: 1 (1=0-20%)
[7]; rate 1000 g/ha
  Post-Emergence Test AMAPA percentage damage (five-point scale): 4 (4=61-80%)
[8]; rate 1000 g/ha
  Post-Emergence Test AMARE percentage damage (five-point scale): 4 (4=61-80%)
[9]; rate 1000 g/ha
  Post-Emergence Test ECHCG percentage damage (five-point scale): 4 (4=61-80%)
[10]; rate 1000 g/ha
  Post-Emergence Test IPHOE percentage damage (five-point scale): 3 (3=41-60%)
Setaria faberi (SETFA) [11]; rate 1000 g/ha
  Post-Emergence Test SETFA percentage damage (five-point scale): 4 (4=61-80%)
Zea mays (ZEAMX) [12]; rate 1000 g/ha
  Post-Emergence Test ZEAMX percentage damage (five-point scale): 3 (3=41-60%)

## CCn1c(Oc2ccc(OC(F)(F)F)cc2)cc(=O)c(C(=O)O)c1-c1ccc(Cl)c(Cl)c1 [Compound 20, 2-(3,4-dichlorophenyl)-1-ethyl-4-oxo-6-[4-(trifluoromethoxy)phenoxy]pyridine-3-carboxylic acid]
Setaria faberi (SETFA) [1]; rate 1000 g/ha
  percentage damage caused to the plant, SETFA: 5 (5=81-100%)
[2]; rate 1000 g/ha
  percentage damage caused to the plant, IPHOE: 2 (2=21-40%)
[3]; rate 1000 g/ha
  percentage damage caused to the plant, ECHCG: 5 (5=81-100%)
[4]; rate 1000 g/ha
  percentage damage caused to the plant, AMARE: 4 (4=61-80%)
Zea mays (ZEAMX) [5]; rate 1000 g/ha
  percentage damage caused to the plant, ZEAMX: 3 (3=41-60%)
[6]; rate 1000 g/ha
  percentage damage caused to the plant, AMAPA: 4 (4=61-80%)
[7]; rate 1000 g/ha
  Post-Emergence Test AMAPA percentage damage (five-point scale): 3 (3=41-60%)
[8]; rate 1000 g/ha
  Post-Emergence Test AMARE percentage damage (five-point scale): 4 (4=61-80%)
[9]; rate 1000 g/ha
  Post-Emergence Test ECHCG percentage damage (five-point scale): 4 (4=61-80%)
[10]; rate 1000 g/ha
  Post-Emergence Test IPHOE percentage damage (five-point scale): 3 (3=41-60%)
Setaria faberi (SETFA) [11]; rate 1000 g/ha
  Post-Emergence Test SETFA percentage damage (five-point scale): 5 (5=81-100%)
Zea mays (ZEAMX) [12]; rate 1000 g/ha
  Post-Emergence Test ZEAMX percentage damage (five-point scale): 3 (3=41-60%)

## CCn1c(OC2CC2)cc(=O)c(C(=O)O)c1-c1ccc(Cl)c(Cl)c1 [Compound 45, 6-(cyclopropoxy)-2-(3,4-dichlorophenyl)-1-ethyl-4-oxo-pyridine-3-carboxylic acid]
Setaria faberi (SETFA) [1]; rate 250 g/ha
  percentage damage caused to the plant, SETFA: 1 (1=0-20%)
[2]; rate 250 g/ha
  percentage damage caused to the plant, IPHOE: 0
[3]; rate 250 g/ha
  percentage damage caused to the plant, ECHCG: 0
[4]; rate 250 g/ha
  percentage damage caused to the plant, AMARE: 2 (2=21-40%)
Zea mays (ZEAMX) [5]; rate 250 g/ha
  percentage damage caused to the plant, ZEAMX: 0
[6]; rate 250 g/ha
  percentage damage caused to the plant, AMAPA: 1 (1=0-20%)
[7]; rate 250 g/ha
  Post-Emergence Test AMAPA percentage damage (five-point scale): 2 (2=21-40%)
[8]; rate 250 g/ha
  Post-Emergence Test AMARE percentage damage (five-point scale): 1 (1=0-20%)
[9]; rate 250 g/ha
  Post-Emergence Test ECHCG percentage damage (five-point scale): 2 (2=21-40%)
[10]; rate 250 g/ha
  Post-Emergence Test IPHOE percentage damage (five-point scale): 3 (3=41-60%)
Setaria faberi (SETFA) [11]; rate 250 g/ha
  Post-Emergence Test SETFA percentage damage (five-point scale): 3 (3=41-60%)
Zea mays (ZEAMX) [12]; rate 250 g/ha
  Post-Emergence Test ZEAMX percentage damage (five-point scale): 1 (1=0-20%)

## CCn1c(Oc2ccc3nccnc3c2)cc(=O)c(C(=O)O)c1-c1ccc(Cl)c(Cl)c1 [Compound 42, 2-(3,4-dichlorophenyl)-1-ethyl-4-oxo-6-quinoxalin-6-yloxy-pyridine-3-carboxylic acid]
Setaria faberi (SETFA) [1]; rate 250 g/ha
  percentage damage caused to the plant, SETFA: 1 (1=0-20%)
[2]; rate 250 g/ha
  percentage damage caused to the plant, IPHOE: 2 (2=21-40%)
[3]; rate 250 g/ha
  percentage damage caused to the plant, ECHCG: 1 (1=0-20%)
[4]; rate 250 g/ha
  percentage damage caused to the plant, AMARE: 2 (2=21-40%)
Zea mays (ZEAMX) [5]; rate 250 g/ha
  percentage damage caused to the plant, ZEAMX: 0
[6]; rate 250 g/ha
  percentage damage caused to the plant, AMAPA: 2 (2=21-40%)
[7]; rate 250 g/ha
  Post-Emergence Test AMAPA percentage damage (five-point scale): 1 (1=0-20%)
[8]; rate 250 g/ha
  Post-Emergence Test AMARE percentage damage (five-point scale): 1 (1=0-20%)
[9]; rate 250 g/ha
  Post-Emergence Test ECHCG percentage damage (five-point scale): 1 (1=0-20%)
[10]; rate 250 g/ha
  Post-Emergence Test IPHOE percentage damage (five-point scale): 3 (3=41-60%)
Setaria faberi (SETFA) [11]; rate 250 g/ha
  Post-Emergence Test SETFA percentage damage (five-point scale): 1 (1=0-20%)
Zea mays (ZEAMX) [12]; rate 250 g/ha
  Post-Emergence Test ZEAMX percentage damage (five-point scale): 1 (1=0-20%)
